This is an account of results in US6875761B2 (Eisai Co., Ltd., priority 1997, dated 2005).

pKi: −log10 of the molar value. Counter-ions that a name gives are not always drawn.

Common to all, as to design: species or system SD rats
For one test, the target named is T1, serotonin 2 receptor (Rattus norvegicus, UniProt P14842).
T1 construct: To the receptor fraction of the cerebral cortex were added a test compound and 0.3 nM of [^3H] ketanserin; from tissue; host or cells: rat cerebral cortex membrane fraction
T1 sequence (P14842 whole entry): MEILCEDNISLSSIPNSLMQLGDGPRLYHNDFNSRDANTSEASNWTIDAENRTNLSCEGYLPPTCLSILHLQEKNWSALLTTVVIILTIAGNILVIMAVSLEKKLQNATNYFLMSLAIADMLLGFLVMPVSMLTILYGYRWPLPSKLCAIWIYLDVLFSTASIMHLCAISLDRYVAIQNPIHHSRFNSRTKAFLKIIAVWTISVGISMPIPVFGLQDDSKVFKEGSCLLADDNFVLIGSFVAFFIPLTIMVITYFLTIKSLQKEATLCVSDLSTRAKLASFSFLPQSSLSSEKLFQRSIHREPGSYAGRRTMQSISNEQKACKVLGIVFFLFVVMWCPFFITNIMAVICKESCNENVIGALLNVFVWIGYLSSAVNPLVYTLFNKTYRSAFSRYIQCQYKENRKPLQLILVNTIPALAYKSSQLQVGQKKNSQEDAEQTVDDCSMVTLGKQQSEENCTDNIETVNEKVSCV
Nature of the test: Binding test on [3H] ketanserin, cerebral cortex receptor fraction. The following applies: 0.3 nM [3H] ketanserin, 37° C. 15 min, read-out: 5HT2.

The target in another test is T2, serotonin 1A receptor (Rattus norvegicus, UniProt P19327).
T2 construct: To the receptor fraction of the hippocampus were added a test compound and 0.5 nM of [^3H]; 8-hydroxy-dipropylaminotetralin; from tissue; host or cells: rat hippocampus membrane fraction
T2 sequence (P19327 1-422): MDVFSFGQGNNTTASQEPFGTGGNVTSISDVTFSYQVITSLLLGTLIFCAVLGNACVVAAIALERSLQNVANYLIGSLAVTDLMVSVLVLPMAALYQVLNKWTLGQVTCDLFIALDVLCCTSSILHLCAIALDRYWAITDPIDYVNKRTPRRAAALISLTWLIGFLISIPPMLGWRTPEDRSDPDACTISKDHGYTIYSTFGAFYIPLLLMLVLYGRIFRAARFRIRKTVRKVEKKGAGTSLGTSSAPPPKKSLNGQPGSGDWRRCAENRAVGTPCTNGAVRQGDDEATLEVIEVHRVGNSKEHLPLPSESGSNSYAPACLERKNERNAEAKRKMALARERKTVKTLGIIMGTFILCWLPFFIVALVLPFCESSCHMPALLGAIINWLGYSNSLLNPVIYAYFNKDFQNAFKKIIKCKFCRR
Nature of the test: Binding test on [3H] 8-hydroxy-dipropylaminotetralin, hippocampus receptor fraction. Conditions: rat hippocampus receptor fraction, 0.5 nM [3H] 8-OH-DPAT, room temperature 30 min; read-out: 5HT1.

Another test has as its target α1 adrenalin receptor. The test is described as follows: Binding test on [3H] prazosin, cerebral cortex receptor fraction. Conditions: rat cerebral cortex receptor fraction, about 0.2 nM [3H] prazosin, room temperature 60 min; read-out: α 1.

Experimental for α1 adrenalin receptor: As radioisotope-labeled compounds, use was made of the following reagents (mfd. by NEN). • 3) [^3H] […] Prazosin.
Use was made of SD rats aged 6 to 8 weeks.
The rats were sacrificed by dcapitation to extirpate the cerebra.
Each mixture was homogenized by using a Teflon glass homogenizer and centrifuged as 1,000× g for 10 min. The supernatant thus obtained was further centrifuged at 20,000× g for 20 min. […] After centrifuging at 20,000× g for 20 min, the obtained precipitate was further suspended and centrifuged twice each in the same manner. […] This receptor fraction was stored at −80° C. until using.
IC50 was calculated by the probit method, while Ki was determined in accordance with the following formula: Ki=IC50(1+c/Kd) wherein c represents the concentration of the radioisotope-labeled compound, and Kd represents the dissociation constant of the radioisotope-labeled compound with respect to the receptor determined by Scatchard's analysis. (Binding test on [^3H] prazosin)
To the receptor fraction of the cerebral cortex were added a test compound and about 0.2 nM of [^3H] prazosin and the resultant mixture was incubated at room temperature for 60 min. Next, it was filtered through a glass filter with the use of a cell harvester. After washing the glass filter with 50 mM Tris hydrochloride (pH 7.4), the radioactivity of the receptor was measured with a liquid scintillation counter. The binding detected in the presence of 10 μM of phentolamine was referred to as the nonspecific binding.

On to `CCN1CCN(c2nc(NCc3ccc(OC)cc3)cc3ccccc23)CC1` [Example 220, 1-(1-ethylpiperazin-4-yl)-3-(4-methoxybenzylamino)isoquinoline oxalate], for which the pKi at serotonin 2 receptor is 8.70; at serotonin 1A receptor, 9.28; at α1 adrenalin receptor it was 5.42.

In the case of `CCN1CCN(c2nc(C#Cc3ccccc3OCCO)cc3ccccc23)CC1` [Example 187, 1-(1-Ethylpiperazin-4-Yl)-3-[2-(2-Hydroxyethoxylphenyl]Ethynylisoquinoline Oxalate], the pKi was 8.60 on serotonin 2 receptor, 8.01 at serotonin 1A receptor and 6.01 at α1 adrenalin receptor.

As to `CCN1CCN(c2nc(-c3ccc(OCCOC)cc3)cc3ccccc23)CC1` [Example 42, 1-(4-ethylpiperazin-1-yl)-3-[4-(2-methoxyethoxy)phenyl]isoquinoline dihydrochloride], the figures for the pKi at serotonin 2 receptor, on serotonin 1A receptor and on α1 adrenalin receptor were 8.36, 7.48 and 5.61, respectively.

For the molecule `CCCC(=O)Nc1ccc(-c2cc3ccccc3c(N3CCN(CC)CC3)n2)cc1` [Example 70, 3-(4-Propylcarbonylaminophenyl]-1-(4-Ethylpiperazin-1-Yl)Isoquinoline Hydrochloride], the results for the pKi at serotonin 2 receptor, on serotonin 1A receptor and on α1 adrenalin receptor were 8.26, 7.63 and 5.90, respectively.

`CCN1CCN(c2nc(-c3ccc(CCC(C)O)cc3)cc3ccoc23)CC1` (stereo not drawn) [Example 300, 7-(1-ethylpiperazin-4-yl)-5-[4-(3-hydroxybutyl)phenyl]furo[2,3-c]pyridine dihydrochloride]: the pKi on serotonin 2 receptor is 8.04; on serotonin 1A receptor it was 9.31; on α1 adrenalin receptor, less than 5.70.

For the molecule `CCN1CCN(c2nc(-c3cnc(N4CCOCC4)s3)cc3ccccc23)CC1` [Example 173, 1-(1-ethylpiperazin-4-yl)-3-[2-(4-morpholinyl)-5-thiazolyl]isoquinoline dihydrochloride], the results for the pKi on serotonin 2 receptor, at serotonin 1A receptor and on α1 adrenalin receptor were 8.32, 8.41 and 6.55, respectively.

Consider `CCC(O)c1ccc(-c2cc3ccccc3c(N3CCN(CC)CC3)n2)cc1` (stereo not drawn) [Example 19, 1-(4-ethylpiperazin-1-yl)-3-[4-(1-hydroxypropyl)phenyl]isoquinoline hydrochloride], for which the pKi at serotonin 2 receptor is 8.80; at serotonin 1A receptor, 8.16; on α1 adrenalin receptor it was 6.43.

With `CCN1CCN(c2nc(-c3ccccn3)cc3ccccc23)CC1` [Example 123, 1-(4-Ethylpiperazin-1-yl)-3-(2-Pyridyl)Isoquinoline Dihydrochloride], the pKi was 7.54 at serotonin 2 receptor, 7.47 at serotonin 1A receptor and 6.26 on α1 adrenalin receptor.

Turning to `CCN1CCN(c2nc(-c3ccc(CCCO)c(C#N)c3)cc3ccccc23)CC1` [Example 32, 3-[3-cyano-4-(3-hydroxypropyl)phenyl]-1-(4-ethylpiperazin-1-yl)isoquinoline hydrochloride], the pKi at serotonin 2 receptor was 8.11; at serotonin 1A receptor, 8.00; at α1 adrenalin receptor, 6.30.

With `CCN1CCN(c2nc(-c3ccc(CCC(C)(C)O)c(F)c3)cc3ccccc23)CC1` [Example 416, 1-(4-ethylpiperazin-1-yl)-3-[4-(3-hydroxy-3-methylbutyl)-3-fluorophenyl]isoquinoline], the pKi on serotonin 2 receptor was 9.15; at serotonin 1A receptor, 7.51; at α1 adrenalin receptor, 6.76.

In the case of `CCN1CCN(c2nc(-c3ccc(CCC(C)O)cc3)cc3ccccc23)CC1` (stereo not drawn) [Example 22, 1-(4-ethylpiperazin-1-yl)-3-[4-(3-hydroxybutyl)phenyl]isoquinoline oxalate], the pKi on serotonin 2 receptor was 8.82; on serotonin 1A receptor, 8.03; at α1 adrenalin receptor, 5.51.

`CCN1CCN(c2nc(-c3ccc(CCCO)c(F)c3)cc3ccccc23)CC1` [Example 29, hydrochloride]: the pKi on serotonin 2 receptor is 8.46; on serotonin 1A receptor it was 8.02; at α1 adrenalin receptor it was 6.18.

Take `CCN1CCN(c2nc(-c3ccc(CCCCO)cc3)cc3ccccc23)CC1` [Example 23, 3-[4-(4-hydroxybutyl)phenyl]-1-(4-ethylpiperazin-1-yl)isoquinoline hydrochloride]: the pKi on serotonin 2 receptor is 8.19; at serotonin 1A receptor, 7.77; at α1 adrenalin receptor it was 5.90.

In the case of `CCN1CCN(c2nc(-c3ccc(CCCO)c(OC)c3)cc3ccccc23)CC1` [Example 33, 1-(4-ethylpiperazin-1-yl)-3-[4-(3-hydroxypropyl)-3-methoxyphenyl]isoquinoline hydrochloride], the pKi on serotonin 2 receptor is 7.96; at serotonin 1A receptor, 8.10; on α1 adrenalin receptor it was 6.12.

On to `CCN1CCN(c2nc(-c3ccc(OCCOC)nc3)cc3ccccc23)CC1` [Example 126, 1-(1-Ethylpiperazin-4-yl)-3-[2-(2-Methoxyethoxy)Pyridin-5-yl]Isoquinoline], for which the pKi is 8.24 on serotonin 2 receptor, 7.58 at serotonin 1A receptor and 6.42 at α1 adrenalin receptor.

For the molecule `CCN1CCN(c2nc(-c3ccc(OCCO)cc3)cc3ccccc23)CC1` [Example 36, 1-(4-ethylpiperazin-1-yl)-3-[4-(2-hydroxyethoxy)phenyl]isoquinoline dihydrochloride], the pKi is 8.41 on serotonin 2 receptor, 7.73 on serotonin 1A receptor and 5.91 at α1 adrenalin receptor.

As for `CCN1CCN(c2nc(-c3ccc(OCCF)cc3)cc3ccccc23)CC1` [Example 45, 1-(4-Ethylpiperazin-1-Yl)-3-[4-(2-Fluoroethoxy)Phenyl]Isoquinoline Dihydrochloride], the pKi is 8.96 at serotonin 2 receptor, 7.35 at serotonin 1A receptor and 5.91 on α1 adrenalin receptor.

`CCN1CCN(c2nc(-c3ccc(OCCO)cc3)cc3ccsc23)CC1` [Example 259, 7-(4-ethylpiperazin-1-yl)-5-(4-hydroxyethoxyphenyl)thieno[2,3-c]pyridine Hydrochloride]: the pKi at serotonin 2 receptor is 7.72; at serotonin 1A receptor it was 8.03; at α1 adrenalin receptor, 6.39.

Take `CCN1CCN(c2nc(C#Cc3ccc(OCCO)cc3)cc3ccccc23)CC1` [Example 183, 1-(1-Ethylpiperazin-4-Yl]-3-[4-(2-Hydroxyethoxy)Phenylethynyl]Isoquinoline Dihydrochloride]: the pKi at serotonin 2 receptor is 8.47; at serotonin 1A receptor, 7.85; on α1 adrenalin receptor, 6.24.

Regarding `CCN1CCN(c2nc(C#CCc3ccccc3)cc3ccccc23)CC1` [Example 181, 1-(1-Ethylpiperazin-4-Yl)-3-(3-Phenyl-1-Propynyl)Isoquinoline Oxalate], the pKi on serotonin 2 receptor is 8.17; on serotonin 1A receptor, 7.75; at α1 adrenalin receptor, 6.04.

On to `CCN1CCN(c2nc(-c3ccc(OC)cc3OC)cc3ccccc23)CC1` [Example 12, 3-(2,4-dimethoxyphenyl)-1-(4-ethylpiperazin-1-yl)isoquinolin Dihydrochloride], for which the figures for the pKi at serotonin 2 receptor, on serotonin 1A receptor and at α1 adrenalin receptor were 8.27, 6.85 and 5.39, respectively.

For the molecule `CCN1CCN(c2nc(-c3ccc4c(c3)CC(CO)C4)cc3ccccc23)CC1` (stereo not drawn) [Example 393, 1-(4-Ethylpiperazin-1-yl)-3-(2-Hydroxymethylindan-5-yl)Isoquinoline Dihydrochloride], the pKi on serotonin 2 receptor is 8.74; at serotonin 1A receptor, 7.88; on α1 adrenalin receptor, 6.62.

With `CCCNC(=O)c1ccc(-c2cc3ccccc3c(N3CCN(CC)CC3)n2)cc1` [Example 63, 1-(4-Ethylpiperazin-1-Yl)-3-(4-N-Propylaminocarbonylphenyl)Isoquinoline Hydrochloride], the pKi was 9.08 at serotonin 2 receptor, 7.74 on serotonin 1A receptor and 6.60 on α1 adrenalin receptor.

Take `CCN1CCN(c2nc(CCCCOCc3ccccc3)cc3ccccc23)CC1` [Example 1, 3-(4-benzyloxybutyl)-1-(4-ethylpiperazin-1-yl)isoquinoline Dihydrochloride]: the pKi on serotonin 2 receptor was 7.44; on serotonin 1A receptor it was 7.67; on α1 adrenalin receptor it was less than 5.70.

Turning to `CCN1CCN(c2nc(C#Cc3ccccn3)cc3ccccc23)CC1` [Example 179, 1-(1-Ethylpiperazin-4-Yl)-3-(2-Pyridyl)Ethynylisoquinoline Oxalate], the pKi was 9.40 at serotonin 2 receptor, 8.28 at serotonin 1A receptor and 6.68 on α1 adrenalin receptor.

For `CCN1CCN(c2nc(-c3ccc(OCCC#N)cc3)cc3ccccc23)CC1` [Example 52, 3-[4-(2-Cyanoethoxy)Phenyl]-1-(4-Ethylpiperazin-1-Yl)Isoquinoline Hydrochloride], the pKi on serotonin 2 receptor is 9.22; on serotonin 1A receptor, 7.63; on α1 adrenalin receptor it was 6.26.

As for `CCN1CCN(c2nc(-c3ccc(CCCO)cc3)cc3ccccc23)CC1` [Example 20, 1-(4-ethylpiperazin-1-yl)-3-[4-(3-hydroxypropyl)phenyl]isoquinoline hydrochloride], the values for the pKi on serotonin 2 receptor, at serotonin 1A receptor and at α1 adrenalin receptor were 8.59, 7.84 and 6.06, respectively.

As to `CCN1CCN(c2nc(-c3ccc(C(C)O)cc3)cc3sccc23)CC1` (stereo not drawn) [Example 281, 4-(4-ethylpiperazin-1-yl)-6-[4-(1-hydroxyethyl)phenyl]thieno[3,2-c]pyridine oxalate], the pKi was 7.77 at serotonin 2 receptor, 7.82 at serotonin 1A receptor and 6.46 on α1 adrenalin receptor.
